Test results reported in US4569792A, “Anti-diabetic compounds” (Eli Lilly and Company, priority 1984, dated 1986).

Tests used:
Details in all cases: relative to human proinsulin = 1
[1] = test system: insulin receptor (125I-labeled insulin binding to isolated fat cells); test: Isolated Fat Cell Radioreceptor Assay
Description: Isolated fat cells were prepared by a modification [Huber, C. T., Solomon, S. S., and Duckworth, W. C., J. Clin. Invest. […] All incubations were in Krebs-Ringer-Hepes (KRH) buffer, pH 7.4, with 4% bovine serum albumin (BSA) in a total volume of 2 ml. […] At selected times, triplicate 300 μl aliquots were removed and added to microfuge tubes containing 100 μl dinonyl phthalate [see Gliemann, J., Osterlind, K., Vinten, J., and Gammeltoft, S., Biochem. Biophys. Acta. […] After centrifugation for one minute in a microfuge, the tubes were cut through the oil layer, and the cell pellet was counted using a gamma counter to determine binding.

[2] = test system: insulin receptor (125I-insulin binding to IM-9 cells); test: IM-9 Radioreceptor Assay
Description: IM-9 cells were grown in RPMI media containing 2mM glutamine, 25 mM HEPES, and 10% fetal bovine serum. […] Incubations were carried out in 1.5 ml microfuge tubes at 15° C. for two hours. Concentrations of stock solutions containing insulin, proinsulin, or compound of this invention used in the binding studies were established by amino acid analysis and by their absorbance at 276 nm. The cells were resuspended during the assay every 30 minutes by inverting the tubes several times. At the end of the incubation, the tubes were centrifuged for one minute in a Beckman Microfuge, the supernatant was aspirated, the tips of the tubes containing the cell pellet were excised, and the radioactivity was measured.

isolated rat adipocytes = test: Biological Activity in Isolated Rat Adipocytes (incorporation of 2-3H-glucose in total fat cell lipid); assay type: cell-based
Description: Adipocytes were prepared from epididymal fat pads by a modification (Huber, supra) of the collagenase digestion procedure of Rodbell, supra. Krebs-Ringer-HEPES (KRH) buffer, pH 7.4, containing 4% bovine serum albumin and 0.55 mM glucose was used in all isolation and incubation steps.
Biological activity was assessed according to the method of Moody, A. J., Stan, M. A., Stan, M., and Glieman, J., Horm. Metab. Res. 6, 12-16 (1974) by monitoring the incorporation of 2-^3 H-glucose in total fat cell lipid. […] Radioactivity was determined in a Searle Isocap 300 liquid scintillation counter at an efficiency of approximately 30%. Blanks were prepared in which the scintillation fluid was added to the vials prior to the addition of cells. The average counts obtained from these vials were subtracted from those observed in all other samples.
Competitive binding curves and biological activity dose-response curves were analyzed using the PREFIT and ALLFIT programs [DeLean, A., Munson, P. J., and Rodbard, D., Am. J. Physiol. 235, E97-E102 (1978)] based on a four-parameter logistic model. These analyses indicated the concentration of insulin or proinsulin necessary to produce a half-maximal response, as well as the maximal and minimal values. All values are presented as the mean ± SEM.

Measured: Relative Potency

Human Proinsulin
1: all assays above
